Laboratory results taken from US9138431B2, “Methods of treatment of histamine H-4 receptor-related pruritus” (BRIDGE PHARMA, INC., priority 2013, dated 2015).
Read-outs that look alike come from different tables or passages of the source. Each block holds one molecule with its values, some of them ahead of it.

Key:
[1] = Sedation in human subjects; type: in vivo; settings: doses of 5 mg and 10 mg
[2] = system: human granulocytes (leukocytes; buffy coat); experiment: Inhibition of histamine release from human granulocytes (A23187-induced); type: cell-based; settings: for IC50: Homo sapiens, Leukocyte, 20 min, histamine release induced by A23187 5 μM, 20 min/37° C., read-out: Inhibition of mediator release IC50
Description: Histamine is excessively released from granulocytes in patients with pruritic diseases. The inhibition of histamine release from human granulocytes (leukocytes; buffy coat) by test articles was studied. Leukocytes were obtained from blood from healthy human volunteers and release of histamine was induced by incubation (20 min/37° C.) of the buffy coats with the calcium ionophore A23187 (5 μM) in the presence or absence of a test article. Histamine was analyzed by enzyme-immune assays, using commercially available kits and a microplate reader (MRX, Dynatech). The test articles were evaluated, in duplicate, at five concentrations.

[3] = target: human histamine H-1 Receptor (Homo sapiens (Human), UniProt P35367); experiment: Binding to histamine H-1 receptors; settings: read-out: Human H-1 receptors IC50, heading: Human H-1 receptors IC50
Description: (§1) Affinities of the test compounds for peripheral human histamine H-1-receptors were assessed using receptor-binding assays. The specific binding of the radioactive ligand to the receptor was defined as the difference between total binding and nonspecific binding, determined in the presence of excess unlabeled ligand. Ki-values were determined according to the Cheng-Prusoff equation.

[4] = Repeat-dose pharmacological and toxicological studies in dogs (sedation, tolerability); type: in vivo; settings: daily doses up to 20 mg/kg/day
Description: Dogs vomit spontaneously for a variety of benign reasons—to expel unwanted content from their stomach, as a result of gastric irritation or in response to colonic irritation. In recent toxicological studies in dogs of various drugs, including isomeric norketotifen, vomiting occurred in both control groups and drug groups and may have been treatment-related, rather than drug-related. The unexpectedly low systemic toxicity of norketotifen and the isomers thereof is believed to be due to low systemic (plasma) concentrations, caused by the fact that norketotifen and the isomers thereof are not circulating in plasma but are accumulating in the skin, which is the largest organ in the body.

[5] = system: histamine-induced pruritus; experiment: Antipruritic activity, histamine-induced pruritus in mice; type: in vivo, CD-1 mice; settings: for Inhibition of histamine-induced pruritus (bouts of scratches): oral dosing 60 min before intradermal histamine 300 nmol, references 20 mg/kg, norketotifen escalating doses
Description: Antipruritic effects were tested in vivo in CD-1 mice, females, 10-12 weeks, according to methods known in the art. The hair was clipped over the rostral part of the back at the interscapular level of the mice one day before the dosing. Before the testing, the mice were placed in individual clear plastic cages for at least one hour for acclimation. After fasting for 1.5 hours, the animals were dosed orally with the test article, dissolved in a vehicle consisting of 1% methylcellulose/water, 10 mL/kg body weight. Sixty minutes after the oral dosing, an intradermal injection of histamine (300 nmol in 20 μl phosphate buffered saline (PBS), pH 7.4) was administered. Immediately after the histamine injection, the bouts of scratches were counted for 40 min. Scratching induced by the histamine vehicle PBS served as control.
Norketotifen was tested in escalating doses and in a supramaximal dose of 100 mg/kg.

[6] = target: human histamine H-4 Receptor (Homo sapiens (Human), UniProt Q9H3N8); experiment: Binding to histamine H-4 receptors ([3H]-histamine ligand); settings: Cheng-Prusoff, read-out: Human H-4 receptor affinity (Ki)
Description: as §1, with “H-4-receptors” for “H-1-receptors”, “[^3H]-histamine was used as the ligand in this study and the affinity values” for “Ki-values”

[7] = Dermal drug accumulation after oral administration (plasma and skin PK); type: in vivo, beagle dogs; settings: Day 28, oral 8.0 mg/kg/day hydrogen fumarate salt, dogs
Description: Five male beagle dogs, weighing 11.2-13.9 kg (2-4 years old) were used in the study. All animals were administered gelatin capsules containing oral doses of the test article 8.0 mg/kg/day as a hydrogen fumarate salt, equal to 5.6 mg/kg/day of the free base. The animals were dosed once daily for four consecutive weeks followed by daily observations for an additional two-week washout period.
Multiple plasma samples and skin biopsies were taken from each dog on Day 1 and Day 28 of drug administration. The plasma and skin samplings were performed at pre-dose, and at 2, 6, 12 and 24 hours post-dose. Plasma and skin samples were also taken intermittently at predetermined intervals during the 28-days dosing period and up to the last day of the study, which was Day 42. Blood samples were taken from v. Cephalica antebrachii. Skin biopsies were taken from the area between the mid ventral to lateral abdominal areas, using a 6 mm (diameter) skin biopsy device (Acu-Punch®, Acuderm® Inc., Fort Lauderdale, Fla. 33309). Multiple plasma and biopsy samples were obtained from each of 4 or 5 dogs. Subcutaneous fat deposits were carefully trimmed from the skin samples and the skin samples were weighed. All plasma and skin samples were kept
The plasma samples and skin biopsy samples were analyzed using LC/MS/MS methodology. All pharmacokinetic analyses were performed using Pharsight WinNonlin® Professional v5.2.1 software.

[8] = system: pruritus induced by interleukin-31 (IL-31); settings: recent study; cited from earlier work
[9] = system: histamine-induced pruritus; settings: intradermal histamine, humans and mice; general statement; cited from earlier work

Chain of human histamine H-1 Receptor (P35367 whole entry): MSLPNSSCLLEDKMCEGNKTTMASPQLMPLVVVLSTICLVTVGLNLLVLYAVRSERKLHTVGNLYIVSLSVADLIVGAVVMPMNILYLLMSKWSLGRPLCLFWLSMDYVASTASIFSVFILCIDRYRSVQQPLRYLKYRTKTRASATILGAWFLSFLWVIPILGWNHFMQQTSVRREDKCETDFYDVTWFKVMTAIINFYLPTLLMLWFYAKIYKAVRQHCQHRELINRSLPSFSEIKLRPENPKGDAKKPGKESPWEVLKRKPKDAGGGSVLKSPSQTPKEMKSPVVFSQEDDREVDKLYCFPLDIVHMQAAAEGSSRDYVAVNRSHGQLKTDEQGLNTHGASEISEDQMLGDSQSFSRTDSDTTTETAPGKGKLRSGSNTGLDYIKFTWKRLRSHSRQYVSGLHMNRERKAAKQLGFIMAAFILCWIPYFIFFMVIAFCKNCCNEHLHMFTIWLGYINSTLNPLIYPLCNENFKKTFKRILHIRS

Structure (SMILES): O=C1Cc2ccccc2C(=C2CCNCC2)c2ccsc21 [Norketotifen, norketotifen]
Sedation [1]: do not produce sedation | IC50 [2]: 9200 nM | Potency relative to ketotifen as inhibitor of histamine release ([2]; human inflammatory cells): approximately 10 times | IC50 ([3]; listed as RS-NORKETOTIFEN): 11 nM | Sedation or other adverse events, chronic dosing [4]: without causing sedation or other adverse events | Inhibition of histamine-induced pruritus at supramaximal dose ([5]; norketotifen 100 mg/kg oral): complete inhibition | Inhibition of histamine-induced pruritus (bouts of scratches) [5]: dose-dependently inhibiting | Inhibition of histamine-induced pruritus (bouts of scratches) ([5]; listed as norketotifen): potently inhibited

IC50 [2]: 91000 nM
Structure (SMILES): CN1CCC(=C2c3ccccc3CC(=O)c3sccc32)CC1 [Ketotifen, ketotifen, reference compound]

Structure (SMILES): O=C(O)/C=C/C(=O)O.O=C1Cc2ccccc2C(=C2CCNCC2)c2ccsc21 [R-NORKETOTIFEN, R-norketotifen]
Ki [6]: 2300 nM | MRT Plasma [7]: 14.1 h | t1/2 Plasma [7]: 7.7 h | MRT Skin [7]: 159.1 h | t1/2 Skin [7]: 157.0 h | IC50 [3]: 17 nM

Structure (SMILES): CN1CCN(C(=O)c2cc3cc(Cl)ccc3[nH]2)CC1 [JNJ7777120, reference compound]
Inhibition of IL-31-induced pruritus [8]: failed to inhibit | Inhibition of histamine-induced pruritus (bouts of scratches) [5]: potently inhibited

Structure (SMILES): CC(C)(C(=O)O)c1ccc(C(O)CCCN2CCC(C(O)(c3ccccc3)c3ccccc3)CC2)cc1 (stereo not drawn) [fexofenadine]
Inhibition of pruritus following histamine injections by H-1 inhibitors [9]: not inhibited

Structure (SMILES): O=C1Cc2ccccc2C(=C2CCNCC2)c2ccsc21 [S-NORKETOTIFEN, S-norketotifen]
Ki [6]: 1100 nM | MRT Plasma [7]: 11.3 h | t1/2 Plasma [7]: 10.9 h | MRT Skin [7]: 159.0 h | t1/2 Skin [7]: 162.7 h | IC50 [3]: 23 nM
